Here are results for 16 compounds from patent US20080139554A1, “SPIRO-PIPERIDINE DERIVATIVES” (priority 2006, published 2008).

Usually Ki stands for a dissociation constant, usually derived from enzyme kinetics or from competition with a known ligand. A lower Ki goes with higher affinity.

The target of this experiment is T1, human V1a receptor (Homo sapiens, UniProt P37288).
T1 construct: expressed in transfected cells; host or cells: HEK293 cells, transiently transfected; cell membranes
T1 sequence (P37288 whole entry): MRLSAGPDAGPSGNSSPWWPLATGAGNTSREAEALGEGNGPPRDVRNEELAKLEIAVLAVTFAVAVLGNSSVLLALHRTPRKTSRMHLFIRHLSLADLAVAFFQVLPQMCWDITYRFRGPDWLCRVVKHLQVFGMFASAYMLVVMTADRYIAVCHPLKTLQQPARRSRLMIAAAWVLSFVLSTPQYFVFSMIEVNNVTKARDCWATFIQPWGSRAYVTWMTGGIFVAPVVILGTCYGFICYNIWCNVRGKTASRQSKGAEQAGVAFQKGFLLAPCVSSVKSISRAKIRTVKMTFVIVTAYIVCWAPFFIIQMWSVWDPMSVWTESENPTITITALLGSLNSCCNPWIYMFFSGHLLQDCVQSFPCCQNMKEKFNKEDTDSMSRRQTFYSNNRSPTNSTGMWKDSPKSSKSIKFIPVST
Briefly: human V1a receptor binding (3H-Vasopressin SPA). The conditions noted are these: displacement of 3H-Vasopressin; membranes of HEK293 cells transiently transfected with human V1a receptor; Ki by Cheng-Prussoff equation. Here is the method:
The human V1a receptor was cloned by RT-PCR from total human liver RNA. The coding sequence was subcloned in an expression vector after sequencing to confirm the identity of the amplified sequence. […] Cell membranes were prepared from HEK293 cells transiently transfected with the expression vector and grown in 20 liter fermenters with the following protocol.
50 g of cells were resuspended in 30 ml freshly prepared ice cold Lysis buffer (50 mM HEPES, 1 mM EDTA, 10 mM MgCl2 adjusted to pH=7.4+complete cocktail of protease inhibitor (Roche Diagnostics)). The mixture was homogenized with Polytron for 1 min and sonicated on ice for 2×2 minutes at 80% intensity (Vibracell sonicator). The preparation was centrifuged 20 min at 500 g at 4° C., the pellet was discarded and the supernatant centrifuged 1 hour at 43'000 g at 4° C. (19'000 rpm). The pellet was resuspended in 12.5 ml Lysis buffer+12.5 ml Sucrose 20% and homogenized using a Polytron for 1-2 min. The protein concentration was determined by the Bradford method and aliquots were stored at −80° C. until use. For binding studies 60 mg Yttrium silicate SPA beads (Amersham) were mixed with an aliquot of membrane in binding buffer (50 mM Tris, 120 mM NaCl, 5 mM KCl, 2 mM CaCl2, 10 mM MgCl2) for 15 minutes with mixing. 50 ul of bead/membrane mixture was then added to each well of a 96 well plate, followed by 50 ul of 4 nM 3H-Vasopressin (American Radiolabeled Chemicals). For total binding measurement, 100 ul of binding buffer were added to the respective wells; for non-specific binding, 100 ul of 8.4 mM cold vasopressin were added; and for compound testing, 100 ul of a serial dilution of each compound in 2% DMSO was added. The plate was incubated 1 h at room temperature, centrifuged 1 min at 1000 g and counted on a Packard Top-Count. Non-specific binding counts were subtracted from each well and data was normalized to the maximum specific binding set at 100%. To calculate an IC 50 the curve was fitted using a non-linear regression model (XLfit) and the Ki was calculated using the Cheng-Prussoff equation.
(In general: In a radioligand displacement assay an active substance lowers the binding of a labelled ligand.)
`O=C1OC2(CCN(C(=O)c3cc4cc(Cl)ccc4[nH]3)CC2)c2ccc(F)cc21` [Example 1, 1′-[(5-chloro-1H-indol-2-yl)carbonyl]-5-fluoro-3H-spiro[2-benzofuran-1,4′-piperidin]-3-one] had an inhibition constant (Ki) of 41.7 nM. The compound `O=C1OC2(CCN(C(=O)c3cc4cc(Cl)ccc4[nH]3)CC2)c2ccccc21` [Example 2, 1′-[(5-chloro-1H-indol-2-yl)carbonyl]-3H-spiro[2-benzofuran-1,4′-piperidin]-3-one] showed an inhibitory constant (Ki) of 32.4 nM. To `CN(C)C(=O)Cn1c(C(=O)N2CCC3(CC2)OC(=O)c2ccccc23)cc2cc(Cl)ccc21` [Example 4, 2-{5-chloro-2-[(3-oxo-1′H,3H-spiro[2-benzofuran-1,4′-piperidin]-1′-yl)carbonyl]-1H-indol-1-yl}-N,N-dimethylacetamide] belongs 17.4 nM. `N#CCc1cc(Cl)cc2cc(C(=O)N3CCC4(CC3)OC(=O)c3ccccc34)[nH]c12` [Example 5, {5-chloro-2-[(3-oxo-1′H,3H-spiro[2-benzofuran-1,4′-piperidin]-1′-yl)carbonyl]-1H-indol-7-yl}acetonitrile] showed an inhibition constant Ki of 6.61 nM. Against the preceding compound, the Ki is about 2.6-fold lower.

In the case of `O=C(c1cc2cc(F)ccc2[nH]1)N1CCC2(CC1)OCc1ccccc12` [Example 6, 1′-[(5-fluoro-1H-indol-2-yl)carbonyl]-3H-spiro[2-benzofuran-1,4′-piperidine]], affinity was put at a Ki of 17.8 nM.

In turn, `COc1c(C(=O)N2CCC3(CC2)OCc2ccccc23)[nH]c2cccc(Br)c12` [Example 8, 1′-[(4-bromo-3-methoxy-1H-indol-2-yl)carbonyl]-3H-spiro[2-benzofuran-1,4′-piperidine]] had a Ki of 30.2 nM. Consider `O=C(c1cc2cc(Cl)ccc2[nH]1)N1CCC2(CC1)OCc1ccccc12` [Example 9, 1′-[(5-chloro-1H-indol-2-yl)carbonyl]-3H-spiro[2-benzofuran-1,4′-piperidine]], for which affinity was put at a Ki of 5.5 nM. `N#CCc1cc(Cl)cc2cc(C(=O)N3CCC4(CC3)OCc3ccccc34)[nH]c12` [Example 10, [5-chloro-2-(1′H,3H-spiro[2-benzofuran-1,4′-piperidin]-1′-ylcarbonyl)-1H-indol-7-yl]acetonitrile] gave a Ki of 2.09 nM. To `O=C(c1cc2cc(Cl)cc(CN3CCOCC3)c2[nH]1)N1CCC2(CC1)OCc1ccccc12` [Example 11, 1′-{[5-chloro-7-(morpholin-4-ylmethyl)-1H-indol-2-yl]carbonyl}-3H-spiro[2-benzofuran-1,4′-piperidine]] belongs 3.8 nM; to `CN1CCN(Cc2cc(Cl)cc3cc(C(=O)N4CCC5(CC4)OCc4ccccc45)[nH]c23)CC1` [Example 12, 1′-({5-chloro-7-[(4-methylpiperazin-1-yl)methyl]-1H-indol-2-yl}carbonyl)-3H-spiro[2-benzofuran-1,4′-piperidine]], 21.4 nM; to `CN(C)CCNC(=O)Cc1cc(Cl)cc2cc(C(=O)N3CCC4(CC3)OCc3ccccc34)[nH]c12` [Example 13, 2-[5-chloro-2-(1′H,3H-spiro[2-benzofuran-1,4′-piperidin]-1′-ylcarbonyl)-1H-indol-7-yl]-N-[2-(dimethylamino)ethyl]acetamide], 7.76 nM.

`CN1CCN(C(=O)Cc2cc(Cl)cc3cc(C(=O)N4CCC5(CC4)OCc4ccccc45)[nH]c23)CC1` [Example 14, 1′-({5-chloro-7-[2-(4-methylpiperazin-1-yl)-2-oxoethyl]-1H-indol-2-yl}carbonyl)-3H-spiro[2-benzofuran-1,4′-piperidine]] showed an inhibitory constant (Ki) of 2.75 nM.

For the compound `CN(C)Cc1cc(Cl)cc2cc(C(=O)N3CCC4(CC3)OCc3ccccc34)[nH]c12` [Example 15, 1-[5-chloro-2-(1′H,3H-spiro[2-benzofuran-1,4′-piperidin]-1′-ylcarbonyl)-1H-indol-7-yl]-N,N-dimethylmethanamine], the Ki is 3.63 nM. The compound `Cc1ccc2c(C)c(C(=O)N3CCC4(CC3)COc3ccccc34)[nH]c2c1C` [Example 24, 1′-[(3,6,7-trimethyl-1H-indol-2-yl)carbonyl]spiro[1-benzofuran-3,4′-piperidine]] gave a Ki of 9.77 nM.

`Cc1c(C(=O)N2CCC3(CC2)COc2ccccc23)[nH]c2c(C)cccc12` [Example 26, 1′-[(3,7-dimethyl-1H-indol-2-yl)carbonyl]spiro[1-benzofuran-3,4′-piperidine]]: the Ki is 7.24 nM.

Turning to `N#CCn1c(C(=O)N2CCC3(CC2)C(=O)Nc2ccc(Br)cc23)cc2cc(Cl)ccc21` [Example 46, {2-[(5-Bromo-2-oxo-1,2-dihydro-1′H-spiro[indole-3,4′-piperidin]-1′-yl)carbonyl]-5-chloro-1H-indol-1-yl}acetonitrile], the Ki was 21.4 nM. Compared with the last compound, the Ki is about 3-fold higher.
